Drawing on PubChem BioAssay (NCI), this text covers TGI and GI50 for 30 molecules.

Test in all cases: NCI anticancer screen, dose series, 48 h
Assay [1] concerns DLD-1 colon.
The subject of assay [2] is KM20L2 colon.
Assay [3] deals with LXFL 529 NSCLC.
Assay [4] deals with RXF-631 renal.
In assay [5] the test system is XF 498 CNS.
The subject of assay [6] is MDA-MB-231 breast.
The test system of assay [7] is MDA-N.
Assay [8] relates to DMS 273 small cell lung.
The test system of assay [9] is HOP-18 NSCLC.

Several values for one entry are separate records, joined by “and”; a condition that tells them apart may be missing. Equal values may be shown once.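 How tested: cells in 96-well plates exposed to compound for 48 hours at five concentrations. Abbreviation: GI50, concentration required for 50% inhibition of growth. At the TGI there is no net growth.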

With `NC(C(=O)O)c1ccc(C(=O)O)cc1` (stereo not drawn), the TGI in [1], in [2], in [3], in assay [4] and in assay [5] was > 100 µM throughout.

For `CSc1nc(-c2cccc(NC(=O)CCl)c2)c(C#N)c(=O)n1C`, in [6], the GI50 is 1.6 µM and the TGI is 3.38 µM.

Take `COn1cc(C(=O)N=C(SC)SC)c2ccccc21`: in assay [6], the GI50 was 17.5 µM and the TGI was found to be 51.3 µM.

As to `COc1ccc(CNC(=O)c2c(C)n([O-])c3cc(F)c(F)cc3[n+]2=O)cc1`, in [6], the GI50 is 12.2 µM and the TGI turned out to be 25.5 µM.

With `COc1ccc(-c2cc3c(N)ncnc3o2)cc1`, in [6], the GI50 is > 25 µM and the TGI was > 25 µM.

`CC1SC(c2cccc(Cl)c2)N(NC(=O)C(O)c2ccccc2)C1=O` (stereo not drawn): in assay [6], the GI50 was > 100 µM and the TGI was > 100 µM.

Turning to `COc1cc2c3c(n(CCCN4CCN(CCO)CC4)c(=O)c2cc1OC)-c1cc2c(cc1C3=O)OCO2`, in [6], the GI50 is 4.97 µM and the TGI is 18.3 µM.

For `CCC(=O)OCN1C(=O)C=CC1=O`, the TGI in assay [6] is 33.2 µM and 33.1 µM; in assay [7] it was 31.4 µM.

Regarding `CCCC(CCC)C(=O)O`, the GI50 in [6] is > 100 µM. For the same molecule, the TGI in assay [6] was > 20000 µM; in assay [7], > 100 µM.

For `CC1(C)N=C(N)N=C(N)N1c1ccc(CCC(=O)Nc2cccc(S(=O)(=O)F)c2)cc1`, in [6], the GI50 is 86.8 µM and the TGI is > 100 µM.

Turning to `N#CC(CC(=O)O)=C(c1ccccc1)c1ccccc1`, the TGI in assay [6] and in assay [7] was > 100 µM each time.

Consider `CCN(CC)c1ccc(N=C2C=CC(=C(C#N)C#N)c3ccccc32)c(C)c1`, for which the TGI worked out at 6.5 µM in assay [1]; 6.51 µM in assay [8]; 10.3 µM in assay [9]; 6.75 µM in assay [2]; 2.89 µM in assay [5].

Take `O=C1OC(=O)C2C1C1C(c3ccccc3)=C(c3ccccc3)C2(O)C2C(=O)OC(=O)C12` (stereo not drawn): the TGI in assay [1], in [2] and in [3] was > 100 µM in each case.

With `CC(C)Cn1cnc2c(SCc3ccccn3)nc(N)nc21`, the TGI in [6] and in assay [7] was > 100 µM in each case.

With `CN1CCN(Cc2ccc(NC(=O)c3cncc(C#Cc4ncc5ccccn45)c3)cc2C(F)(F)F)CC1`, in assay [6], the GI50 is 0.881 µM and the TGI came to 5.92 µM.

With `CCCNC(=O)Nc1ccc2c(c1)Cc1cc(N(CCCl)CCCl)ccc1-2`, in [6], the TGI is > 100 µM.

`CCc1cccc(CC)c1NC(=O)C1=CNC(C)=C(C(=O)Nc2c(CC)cccc2CC)C1c1ccc(O)c(OC)c1` (stereo not drawn): the TGI is > 100 µM in [1]; > 100 µM in assay [2]; > 100 µM in assay [3]; > 100 µM in assay [4]; 67.3 µM in [5].

Turning to `CN(C)c1ccc(/C=c2\sc3nnc(Cc4ccccc4)n3c2=O)cc1`, the GI50 in assay [1] was > 100 µM; in [8], > 10 µM; in [9], > 100 µM; in assay [2], > 100 µM; in assay [3], > 100 µM; in [5], > 100 µM. Besides, the TGI in [1], in [8], in [9], in [2], in [3] and in assay [5] was > 100 µM each time.

On to `O=C(N/N=C/c1cccc(O)c1)c1ccc(C(F)(F)F)nc1Nc1cccc(C(F)(F)F)c1`, for which, in assay [6], the GI50 is 1.08 µM and the TGI came out at 3.02 µM.

Consider `N#CC1([N+](=O)[O-])C=C1c1ccccc1` (stereo not drawn), for which the TGI in assay [1], in assay [8], in assay [2], in [3] and in assay [4] was > 100 µM throughout.

As for `O=[N+]([O-])c1ccc2nc(=S)[nH]n2c1`, the TGI in [6] is > 100 µM.

For `CC(=O)Nc1ccc(OCC(O)CO)cc1` (stereo not drawn), the TGI in assay [1] is 54.1 µM; in assay [8], > 100 µM; in assay [9], > 100 µM; in assay [2], > 100 µM; in assay [3] it was > 100 µM; in assay [5], > 100 µM.

For `CC1CC2(C)CC(=O)C1C1C(=O)N(CCN3CCOCC3)C(=O)C12` (stereo not drawn), in [6], the GI50 was > 100 µM and the TGI was > 100 µM.

Turning to `N#CC1C(=O)NC(=O)C(C#N)C1c1ccc(Cl)c(Cl)c1` (stereo not drawn), in assay [6], the TGI is > 100 µM.

As for `CC1CCC2[C@@H](C)COC3O[C@]4(C)CCC1C32OO4` (stereo partly drawn), the TGI in assay [1], in assay [8], in assay [9], in assay [2] and in [3] was > 100 µM throughout.

As to `O=C1CC2OCC=C3CN4CCC56c7ccccc7N1C5C2C3CC46` (stereo not drawn) (tested in a mixture with another compound), in [6], the GI50 was > 50 µg/mL and the TGI is > 50 µg/mL. Also, in [7], the GI50 was > 50 µg/mL and the TGI is > 50 µg/mL.

For the molecule `C=C1C(OCCO)OC2O[C@]3(C)CCC4[C@H](C)CCC1C24OO3` (stereo partly drawn), in assay [7], the GI50 was 14.8 µM and the TGI stood at 87.9 µM.

`CN(C)c1ccc(/C=N/NC(=O)c2cnc3ccccc3c2)cc1`: the TGI in assay [6] and in [7] was > 100 µM each time.

Take `NC(=S)N=Nc1c(O)[nH]c2ccccc12`: in assay [6], the GI50 is 158 µM and the TGI worked out at 385 µM.

On to `COc1ccc(S(=O)(=O)N/N=C/CN2C(=O)c3ccccc3C2=O)cc1`, for which the TGI in assay [1], in [8], in [2], in assay [3] and in [5] was > 100 µM throughout.
